Experimental data as given in patent publication US20040162221A1, “Pyrazole derivatives and herbicides containing the same” (IDEMITSU KOSAN CO., LTD., priority 1998, published 2004).

Tests used:
[1] = test system: corn; assay: Upland pre-emergence treatment test, phytotoxicity to corn; type: in vivo; details: pre-emergence soil surface spray, 80 g/ha, 20th day after treatment, greenhouse; further: ranges in brackets are in %
Excerpt: (§1) 97 Parts by weight of talc (trade name: Zeaklite, supplied by Zeaklite Industry) as a carrier, 1.5 parts by weight of alkylarylsulfonic acid salt (trade name: Neoplex, supplied by Kao-Atlas K.K.) as a surfactant and 1.5 parts by weight of a nonionic and anionic surfactant (trade names Sorpol 800A, supplied by Toho Chemical Co., Ltd.) were uniformly pulverized and mixed to prepare a carrier for a wettable powder.
(§2) 90 Parts by weight of the above carrier for a wettable powder and 10 parts by weight of one of the compounds of the present invention were uniformly pulverized and mixed to obtain herbicides. Further, in Comparative Herbicide Examples, comparative herbicides were also prepared from the following compounds (A) and (B) in the same manner.
(§3) Herbicidal efficacy and phytotoxicity to crops were determined on the basis of the ratio of remaining plant weight to plant weight in non-treated plot=(remaining plant weight in treated plot/plant weight in non-treated-plot)×100. The ratings were applied to the following biological tests.
(§4) Seeds of weeds such as velvetleaf, common lambsquaters, redroot pigweed, common ragweed, green foxtail and large crabgrass and seeds of corn were sown in 1/5,000-are Wagner pots filled with upland soil, and covered with upland soil. Then, a predetermined amount of the herbicide prepared in the above (1) was suspended in water, and the suspension was uniformly sprayed onto the soil surface at a rate of 2,000 liters/hectare. Then, the seeds were grown in a greenhouse, and on the 20th day after the treatment, the herbicide was evaluated for herbicidal efficacy and phytotoxicity to corn on the basis of the ratings shown in (2).

[2] = test system: green foxtail; assay: Upland post-emergence treatment test, green foxtail; type: in vivo, green foxtail (Setaria viridis); details: post-emergence spray at 3-4 leaf stage, 80 g/ha, 30th day after treatment, greenhouse; further: ranges in brackets are in %
Excerpt: as §1, §2, §3
(§5) Seeds of weeds velvetleaf, redroot pigweed, common ragweed, green foxtail and large crabgrass and seeds of corn were sown in 1/5,000-are Wagner pots filled with upland soil, and covered with upland soil. The seeds were grown in a greenhouse, and at the stage of 3˜4 leaves of these plants, a predetermined amount of the herbicide prepared in the above (1) was suspended in water, and the suspension was uniformly sprayed onto leaf and stalk portions at a rate of 2,000 liters/hectare. Then, the plants were grown in the greenhouse, and on the 30th day after the treatment, the herbicide was evaluated for herbicidal efficacy and phytotoxicity to the corn on the basis of the ratings shown in (2).

[3] = test system: large crabgrass; assay: Upland post-emergence treatment test, large crabgrass; type: in vivo; details: post-emergence spray at 3-4 leaf stage, 80 g/ha, 30th day after treatment, greenhouse; further: ranges in brackets are in %
Excerpt: as §1, §2, §3, §5

[4] = test system: common ragweed; assay: Upland pre-emergence treatment test, common ragweed; type: in vivo, common ragweed (Ambrosia artemisilfolia); details: for Herbicidal Efficacy DD = Common ragweed: pre-emergence soil surface spray, 80 g/ha, 20th day after treatment, greenhouse; on Herbicidal Efficacy DD = Common ragweed: ranges in brackets are in %
Excerpt: as §1, §2, §3, §4

[5] = test system: velvetleaf; assay: Upland post-emergence treatment test, velvetleaf; type: in vivo, velvetleaf (Abutilon theophrasti); details: for Herbicidal Efficacy AA = Velvetleaf: post-emergence spray at 3-4 leaf stage, 80 g/ha, 30th day after treatment, greenhouse; on Herbicidal Efficacy AA = Velvetleaf: ranges in brackets are in %
Excerpt: as §1, §2, §3, §5

[6] = test system: large crabgrass; assay: Upland pre-emergence treatment test, large crabgrass; type: in vivo; details: pre-emergence soil surface spray, 80 g/ha, 20th day after treatment, greenhouse; further: ranges in brackets are in %
Excerpt: as §1, §2, §3, §4

[7] = test system: redroot pigweed; assay: Upland post-emergence treatment test, redroot pigweed; type: in vivo, redroot pigweed (Amaranthus retroflexus); details: for Herbicidal Efficacy CC = Redroot Pigweed: post-emergence spray at 3-4 leaf stage, 80 g/ha, 30th day after treatment, greenhouse; on Herbicidal Efficacy CC = Redroot Pigweed: ranges in brackets are in %
Excerpt: as §1, §2, §3, §5

[8] = test system: corn; assay: Upland post-emergence treatment test, phytotoxicity to corn; type: in vivo; details: post-emergence spray at 3-4 leaf stage, 80 g/ha, 30th day after treatment, greenhouse; further: ranges in brackets are in %
Excerpt: as §1, §2, §3, §5

[9] = test system: common ragweed; assay: Upland post-emergence treatment test, common ragweed; type: in vivo, common ragweed (Ambrosia artemisilfolia); details: post-emergence spray at 3-4 leaf stage, 80 g/ha, 30th day after treatment, greenhouse; further: ranges in brackets are in %
Excerpt: as §1, §2, §3, §5

[10] = test system: green foxtail; assay: Upland pre-emergence treatment test, green foxtail; type: in vivo, green foxtail (Setaria viridis); details: pre-emergence soil surface spray, 80 g/ha, 20th day after treatment, greenhouse; further: ranges in brackets are in %
Excerpt: as §1, §2, §3, §4

[11] = test system: common lambsquaters; assay: Upland pre-emergence treatment test, common lambsquaters; type: in vivo, common lambsquaters (Chenopodium album); details: pre-emergence soil surface spray, 80 g/ha, 20th day after treatment, greenhouse; further: ranges in brackets are in %
Excerpt: as §1, §2, §3, §4

[12] = test system: redroot pigweed; assay: Upland pre-emergence treatment test, redroot pigweed; type: in vivo, redroot pigweed (Amaranthus retroflexus); details: for Herbicidal Efficacy CC = Rough Pigweed: pre-emergence soil surface spray, 80 g/ha, 20th day after treatment, greenhouse; on Herbicidal Efficacy CC = Rough Pigweed: ranges in brackets are in %
Excerpt: as §1, §2, §3, §4

[13] = test system: velvetleaf; assay: Upland pre-emergence treatment test, velvetleaf; type: in vivo, velvetleaf (Abutilon theophrasti); details: for Herbicidal Efficacy AA = Velvetleaf: pre-emergence soil surface spray, 80 g/ha, 20th day after treatment, greenhouse; on Herbicidal Efficacy AA = Velvetleaf: ranges in brackets are in %
Excerpt: as §1, §2, §3, §4

[14] = pre-emergence, text summary of Table 7

| SMILES | Phytotoxicity Corn [1] | Herbicidal Efficacy EE = Green foxtail [2] | Herbicidal Efficacy FF = Large crabgrass [3] | Herbicidal Efficacy DD = Common ragweed [4] | Herbicidal Efficacy AA = Velvetleaf [5] | Herbicidal Efficacy FF = Large crabgrass [6] | Herbicidal Efficacy CC = Redroot Pigweed [7] | Phytotoxicity Corn [8] | Herbicidal Efficacy DD = Common ragweed [9] | Herbicidal Efficacy EE = Green foxtail [10] | Herbicidal Efficacy BB = Common lambsquaters [11] | Herbicidal Efficacy CC = Rough Pigweed [12] | Herbicidal Efficacy AA = Velvetleaf [13] | herbicidal efficacy against common ragweed (in words) [4, 14] | herbicidal efficacy against velvetleaf (in words) ([5]; post-emergence, Tables 8 and 9) | herbicidal efficacy against redroot pigweed (in words) ([7]; post-emergence, Tables 8 and 9) | herbicidal efficacy against redroot pigweed (in words) [12, 14] | herbicidal efficacy against velvetleaf (in words) [13, 14] |
| --- | --- | --- | --- | --- | --- | --- | --- | --- | --- | --- | --- | --- | --- | --- | --- | --- | --- | --- |
| Cc1ccc(S(=O)(=O)Oc2c(C(=O)c3ccc4c(c3C)C(C)(C)CS4(=O)=O)cnn2C)cc1 [Compound 18] | − (100) | 5 (0) | 5 (0) | 4 (1-20) | 5 (0) | 5 (0) | 5 (0) | − (100) | 5 (0) | 5 (0) | 5 (0) | 5 (0) | 5 (0) | – | – | – | – | – |
| Cc1c(C(=O)c2cnn(C)c2O)ccc2c1C(C)(C)CS2(=O)=O.[Na] [Compound 52, 5-(1′-methyl-5′-hydroxypyrazol-4′-yl)carbonyl-3,3,4-trimethyl-2,3-dihdyrobenzothiophene-1,1-dioxide sodium salt] | − (100) | 5 (0) | 5 (0) | 4 (1-20) | 5 (0) | 5 (0) | 5 (0) | − (100) | 5 (0) | 4 (1-20) | 5 (0) | 5 (0) | 4 (1-20) | – | – | – | – | – |
| Cc1c(C(=O)c2cnn(C)c2OCC(=O)c2ccccc2)ccc2c1C(C)(C)CS2(=O)=O [Compound 49, 5-(1′-methyl-5′-phenacyloxypyrazol-4′-yl)carbonyl-3,3,4-trimethyl-2,3-dihydrobenzothiophene-1,1-dioxide] | − (100) | 5 (0) | 5 (0) | 5 (0) | 5 (0) | 5 (0) | 5 (0) | − (100) | 5 (0) | 5 (0) | 5 (0) | 5 (0) | 5 (0) | – | – | – | – | – |
| Cc1c(C(=O)c2cnn(C)c2OC(=O)C2CCCCC2)ccc2c1C(C)(C)CS2(=O)=O [Compound 37] | − (100) | 5 (0) | 5 (0) | 5 (0) | 5 (0) | 5 (0) | 5 (0) | − (100) | 5 (0) | 5 (0) | 5 (0) | 5 (0) | 5 (0) | – | – | – | – | – |
| CCn1ncc(C(=O)c2cc(C)c3c(c2C)C(C)CS3(=O)=O)c1O (stereo not shown) [Compound (B), reference compound] | − (100) | 4 (1-20) | 5 (0) | 2 (41-60) | 2 (41-60) | 5 (0) | 2 (41-60) | ++ (80-89) | 5 (0) | 5 (0) | 4 (1-20) | 1 (61-80) | 1 (61-80) | inferior | inferior | inferior | inferior | inferior |
